Data from patent US8772500B2, “TRPV3 modulators” (AbbVie Inc., priority 2011, dated 2014).

Key:
[1] = In vitro rat microsomal stability assay; type: in vitro ADME, rat (Sprague-Dawley)
Description: (§1) Test compounds were evaluated for metabolic stability in an in vitro rat microsomal stability assay using rat (Sprague-Dawley, from BD Biosciences) liver microsomes and/or an in vitro human microsomal stability assay using human (Xenotech) liver microsomes. […] Incubations were carried out at 37° C. with a final incubation volume of 135 μL. […] A 1.5 μL aliquot of reduced nicotine adenine disphosphonucleotide (NADPH) (Chem-Impex Int'L Inc., Lot 12532024) was also added to the time-zero plates.

[2] = In vitro human microsomal stability assay; type: in vitro ADME
Description: as §1

[3] = Sprague-Dawley, rat, 0.5 h, 0.5 μM, pH 7.4
[4] = 0.5 μM substrate, 0.25 mg/mL microsomal protein, pH 7.4, 37° C., NADPH, 30 minutes

| Compound | RAT MICROSOMAL STABILITY (% REMAINING AFTER 30 MINUTES) [1, 3] [%] | HUMAN MICROSOMAL STABILITY (% REMAINING AFTER 30 MINUTES) ([2]; human, 0.5 h, 0.5 μM, pH 7.4) [%] | RAT MICROSOMAL STABILITY (% REMAINING AFTER 30 MINUTES) [1, 4] [%] | HUMAN MICROSOMAL STABILITY (% REMAINING AFTER 30 MINUTES) [2, 4] [%] |
| --- | --- | --- | --- | --- |
| OC(c1ccccn1)C1(c2cccc(F)c2)CCCO1 (single isomer, unassigned) [Example 101, (syn)-[2-(3-fluorophenyl)tetrahydrofuran-2-yl](pyridin-2-yl)methanol] | 0.17 | 40 | – | – |
| OC(C1CCCc2cccnc21)C1(c2cccc(C(F)(F)F)c2)CCC1 (single isomer, unassigned) [Example 180, (syn)-5,6,7,8-tetrahydroquinolin-8-yl{1-[3-(trifluoromethyl)phenyl]-cyclobutyl}methanol] | <0.01 | <0.01 | – | – |
| OC(C1CCCc2cccnc21)C1(c2ccc(Cl)c(Cl)c2)CCC1 (single isomer, unassigned) [Example 182, (syn)-[1-(3,4-dichlorophenyl)cyclobutyl][5,6,7,8-tetrahydroquinolin-8-yl]-methanol] | <0.01 | <0.01 | – | – |
| OC(C1CCCc2cccnc21)C1(c2ccc(C(F)(F)F)cc2)CCC1 (single isomer, unassigned) [Example 184, (syn)-5,6,7,8-tetrahydroquinolin-8-yl{1-[4-(trifluoromethyl)phenyl]-cyclobutyl}methanol] | <0.01 | 0.46 | – | – |
| OC1CC(c2ccc(Cl)c(Cl)c2)(C(O)c2ncccn2)C1 (single isomer, unassigned) [Example 313] | >85 | 81 | – | – |
| OC(c1ccccn1)C1(c2ccccn2)CCC1 (centres unmarked) [Example 19, pyridin-2-yl(1-pyridin-2-ylcyclobutyl)methanol] | 76 | >85 | – | – |
| OC(c1ccccn1)C1(c2cccnc2)CCC1 (centres unmarked) [Example 20, pyridin-2-yl(1-pyridin-3-ylcyclobutyl)methanol] | 81 | 80 | – | – |
| OC(c1ccccn1)C1(c2ccc(Cl)c(Cl)c2)CCCCC1 (centres unmarked) [Example 43, [1-(3,4-dichlorophenyl)cyclohexyl](pyridin-2-yl)methanol] | 0.31 | 1.8 | – | – |
| OC(c1ccccn1)C1(c2ccc(Cl)c(Cl)c2)COC1 (centres unmarked) [Example 87, [3-(3,4-dichlorophenyl)oxetan-3-yl](pyridin-2-yl)methanol] | 8.6 | 47 | – | – |
| OC(c1ccccn1)C1(c2ccccc2F)CCCO1 (centres unmarked) [Example 102] | 0.55 | 45 | – | – |
| Nc1cccnc1C(O)C1(c2cccc(C(F)(F)F)c2)CCC1 (centres unmarked) [Example 120, (3-aminopyridin-2-yl){1-[3-(trifluoromethyl)phenyl]cyclobutyl}methanol] | <0.01 | 1.6 | – | – |
| CN1CCC(c2ccc(Cl)c(Cl)c2)(C(O)c2ccccn2)CC1 (centres unmarked) [Example 141, [4-(3,4-dichlorophenyl)-1-methylpiperidin-4-yl](pyridin-2-yl)methanol] | – | – | 59 | >85 |
| CN1CCC(c2ccc(C(F)(F)F)cc2)(C(O)c2ccccn2)CC1 (centres unmarked) [Example 143, {1-methyl-4-[4-(trifluoromethyl)phenyl]piperidin-4-yl}(pyridin-2-yl)-methanol] | – | – | 80 | >85 |
| CC(C)(C)OC(=O)N1CCC(c2cccc(OC(F)(F)F)c2)(C(O)c2ccccn2)CC1 (centres unmarked) [Example 158, tert-butyl 4-[hydroxy(pyridin-2-yl)methyl]-4-[3-(trifluoromethoxy)phenyl]-piperidine-1-carboxylate] | – | – | 0.04 | 3.7 |
| OC(C1CCc2cccnc21)C1(c2cccc(C(F)(F)F)c2)CCC1 (stereo not drawn) [Example 186, (syn)-6,7-dihydro-5H-cyclopenta[b]pyridin-7-yl{1-[3-(trifluoromethyl)-phenyl]cyclobutyl}methanol] | – | 0.18 | – | – |

Continued, in another order:

| RAT MICROSOMAL STABILITY (% REMAINING AFTER 30 MINUTES) [1, 3] [%] | HUMAN MICROSOMAL STABILITY (% REMAINING AFTER 30 MINUTES) ([2]; human, 0.5 h, 0.5 μM, pH 7.4) [%] | Compound | RAT MICROSOMAL STABILITY (% REMAINING AFTER 30 MINUTES) [1, 4] [%] | HUMAN MICROSOMAL STABILITY (% REMAINING AFTER 30 MINUTES) [2, 4] [%] |
| --- | --- | --- | --- | --- |
| >85 | >85 | OC1CC(c2ccc(C(F)(F)F)cc2)([C@@H](O)c2ccccn2)C1 (mixture of isomers) [Example 199, 3-[(R)-hydroxy(pyridin-2-yl)methyl]-3-[4-(trifluoromethyl)phenyl]-cyclobutanol] | – | – |
| 50 | >85 | OC1CC(c2ccc(OC(F)(F)F)cc2)(C(O)c2ccccn2)C1 (single isomer, unassigned) [Example 131] | – | – |
| <0.01 | 9.2 | OC(C1CCCc2cccnc21)C1(c2ccc(OC(F)(F)F)cc2)CCC1 (single isomer, unassigned) [Example 178, (syn)-5,6,7,8-tetrahydroquinolin-8-yl{1-[4-(trifluoromethoxy)phenyl]-cyclobutyl}methanol] | – | – |
| 52 | 71 | OC(c1ccccn1)C1(c2ccncc2)CCC1 (centres unmarked) [Example 21, pyridin-2-yl(1-pyridin-4-ylcyclobutyl)methanol] | – | – |
| 21 | 54 | O[C@H](c1ncccn1)C1(c2ccc(C(F)(F)F)cc2)CCC1 [Example 41, (S)-pyrimidin-2-yl{1-[4-(trifluoromethyl)phenyl]cyclobutyl}methanol] | – | – |
| 40 | 50 | O[C@@H](c1ncccn1)C1(c2ccc(C(F)(F)F)cc2)CCC1 [Example 42, (R)-pyrimidin-2-yl{1-[4-(trifluoromethyl)phenyl]cyclobutyl}methanol] | – | – |
| 0.18 | 41 | Nc1cccnc1C(O)C1(c2ccc(OC(F)(F)F)cc2)CCC1 (centres unmarked) [Example 121, (3-aminopyridin-2-yl){1-[4-(trifluoromethoxy)phenyl]cyclobutyl}methanol] | – | – |
| 26 | 28 | O[C@@H](c1ccccn1)C1(c2cc(C(F)(F)F)ccn2)CCC1 [Example 122, (R)-pyridin-2-yl{1-[4-(trifluoromethyl)pyridin-2-yl]cyclobutyl}methanol] | – | – |
| <0.01 | 1.6 | Nc1cccnc1C(O)C1(c2cccc(OC(F)(F)F)c2)CCC1 (centres unmarked) [Example 124, (3-aminopyridin-2-yl){1-[3-(trifluoromethoxy)phenyl]cyclobutyl}methanol] | – | – |
| 37 | >85 | OC(c1ccccn1)C1(c2ccc(Cl)c(Cl)c2)CCNCC1 (centres unmarked) [Example 140, [4-(3,4-dichlorophenyl)piperidin-4-yl](pyridin-2-yl)methanol] | – | – |
| 37 | >85 | OC(c1ccccn1)C1(c2ccccc2OC(F)(F)F)CCNCC1 (centres unmarked) [Example 142, pyridin-2-yl{4-[2-(trifluoromethoxy)phenyl]piperidin-4-yl}methanol] | – | – |
| 51 | >85 | OC(c1ccccn1)C1(c2ccc(OC(F)(F)F)cc2)CCNCC1 (centres unmarked) [Example 144, pyridin-2-yl{4-[4-(trifluoromethoxy)phenyl]piperidin-4-yl}methanol] | – | – |
| 79 | >85 | OC(c1ccccn1)C1(c2ccc(C(F)(F)F)cc2)CCNCC1 (centres unmarked) [Example 147, pyridin-2-yl{4-[4-(trifluoromethyl)phenyl]piperidin-4-yl}methanol] | – | – |
| 0.08 | 26 | CC(C)(C)OC(=O)N1CCC(c2ccc(C(F)(F)F)cc2)(C(O)c2ccccn2)CC1 (centres unmarked) [Example 156, tert-butyl 4-[hydroxy(pyridin-2-yl)methyl]-4-[4-(trifluoromethyl)phenyl]-piperidine-1-carboxylate] | – | – |
| 0.93 | 28 | CC(C)(C)OC(=O)N1CCC(c2ccc(OC(F)(F)F)cc2)(C(O)c2ccccn2)CC1 (centres unmarked) [Example 157, tert-butyl 4-[hydroxy(pyridin-2-yl)methyl]-4-[4-(trifluoromethoxy)phenyl]-piperidine-1-carboxylate] | – | – |
